Here are results for 6 compounds from patent US8871798B2, “Tricyclic pyridyl-vinyl pyrroles as PAR1 inhibitors” (Sanofi, priority 2010, dated 2014).

This test addresses T1, PAR1 (Homo sapiens, UniProt P25116).
T1 construct: endogenous in cells; host or cells: washed platelets from blood of healthy volunteers
T1 sequence (P25116 22-425): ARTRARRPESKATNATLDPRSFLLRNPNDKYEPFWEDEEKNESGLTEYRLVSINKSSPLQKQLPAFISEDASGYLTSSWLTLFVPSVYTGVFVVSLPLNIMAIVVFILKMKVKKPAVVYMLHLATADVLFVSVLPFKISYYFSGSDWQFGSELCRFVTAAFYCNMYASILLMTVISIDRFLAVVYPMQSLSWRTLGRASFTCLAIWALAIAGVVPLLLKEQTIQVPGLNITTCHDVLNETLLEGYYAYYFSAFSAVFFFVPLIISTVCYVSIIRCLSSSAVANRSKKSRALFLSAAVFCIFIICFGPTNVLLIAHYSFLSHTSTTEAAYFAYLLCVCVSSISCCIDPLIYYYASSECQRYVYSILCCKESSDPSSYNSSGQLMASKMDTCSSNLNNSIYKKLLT
Nature of the test: Inhibition of PAR1-mediated platelet aggregation induced by TRAP (thrombin receptor-activating peptide), washed platelets, 96-well format. To be noted: TRAP-induced aggregation of platelets from healthy volunteers; 30 min preincubation at RT; AUC of kinetics at 650 nm, 37° C., 20 minutes. The class given is cell-based. How it is done: PAR1 Determination Method: Inhibition of PAR1-Mediated Platelet Aggregation
The pharmacological testing of the substances took place in platelet aggregation induced by TRAP (thrombin receptor-activating peptide) in 96-well format. For this purpose, blood was taken from healthy volunteers in 20 ml syringes containing 2 ml of 3.13% strength sodium citrate solution. After centrifugation at 150×g for 20 minutes, the platelet-rich plasma (PRP) was separated off and mixed with 1 μl of PGE1 solution (500 μg/ml in ethanol)/ml of PRP. Incubation at RT for 5 minutes was followed by centrifugation at 120×g for 15 minutes to remove the leukocytes. The leukocyte-free PRP was transferred in 5 ml portions into 15 ml PP tubes and centrifuged at 360×g for 15 minutes in order to pellet the platelets. The plasma was then decanted off and the platelet sediment from 5 ml of PRP was resuspended in 1 ml of Tyrode's (120 mM NaCl, 2.6 mM KCl, 12 mM NaHCO3, 0.39 mM NaH2PO4×H2O, 10 mM HEPES, 0.35% BSA (Bovine Serum Albumin), 5.5 mM glucose, pH 7.4) and adjusted with Tyrode's to a platelet count of 3×10^5/microliter (μl). 13 ml of this cell suspension were then mixed with 866 μl of 10 mM CaCl2 solution, and 120 μl thereof were pipetted into each well of a 96-well plate containing 15 μl of the substance to be tested. After incubation at RT in the dark for 30 minutes, 15 μl of a TRAP solution (70-100 μM) were added as agonist, and kinetics were recorded at 650 nm in a SpectraMax 340 at 37° C. for 20 minutes while shaking. The areas under the curves of negative control (Tyrode's/DMSO) and positive control (15 μl of agonist DMSO) were calculated and the difference was fixed as the 100% value. The substances to be tested were pipetted as serial dilutions in duplicate determination, the AUC was likewise determined for each substance concentration, and the % inhibition of the AUC compared with the control was calculated. On the basis of the % inhibition, the IC50 was calculated by nonlinear regression analysis according to the 4-parameter equation.
By IC50 is commonly meant the concentration at which inhibition is half-maximal. A higher IC50 goes with a need for much substance. In turn, `CN1C(=O)[C@@H]2[C@H](C1=O)[C@H](/C=C/c1ccc(-c3cccc(C(F)(F)F)c3)cn1)N1CCCC[C@@H]21` (racemic) [Example 18, 2-Methyl-4-{(E)-2-[5-(3-trifluoromethylphenyl)pyridin-2-yl]vinyl}octahydropyrrolo[3,4-a]indolizine-1,3-dione] had an IC50 of 3.23 µM.

With `CCN1C(=O)C2C(C1=O)C1CCCCN1C2/C=C/c1ccc(-c2cccc(F)c2)cn1` (racemic) [14 (Fr. 3), 2-Ethyl-4-{(E)-2-[5-(3-fluorophenyl)pyridin-2-yl]vinyl}octahydropyrrolo[3,4-a]indolizine-1,3-dione], the IC50 came out at 3.68 µM.

`COc1ccccc1-c1ccc(/C=C/[C@H]2[C@H]3C(=O)N(C)C(=O)[C@H]3[C@@H]3CCCCN23)nc1` (racemic) [Example 19, 4-{(E)-2-[5-(2-Methoxyphenyl)pyridin-2-yl]vinyl}-2-methyloctahydropyrrolo[3,4-a]-indolizine-1,3-dione] gave an IC50 of 4.09 µM.

`CN1C(=O)C2C(C1=O)C1C[C@H](O)CN1C2/C=C/c1ccc(-c2cccc(F)c2)cn1` (mixture of isomers) [11 (Fr. 2), (S)-4-{(E)-2-[5-(3-Fluorophenyl)pyridin-2-yl]vinyl}-7-hydroxy-2-methylhexahydropyrrolo[3,4-a]pyrrolizine-1,3-dione] showed an IC50 of 15.8 µM.

In turn, `CN1C(=O)C2C(C1=O)C1COCCN1C2/C=C/c1ccc(-c2cccc(F)c2)cn1` (racemic) [13 (Fr. 3), 6-{(E)-2-[5-(3-Fluorophenyl)pyridin-2-yl]vinyl}-8-methylhexahydropyrrolo[3′,4′:3,4]pyrrolo[2,1-c][1,4]oxazine-7,9-dione] showed an IC50 of 7.1 µM.

As to `CN1C(=O)[C@@H]2[C@H](C1=O)[C@H](/C=C/c1ccc(-c3ccccc3Cl)cn1)N1CCCC[C@@H]21` (racemic) [Example 20, 4-{(E)-2-[5-(2-Chlorophenyl)pyridin-2-yl]vinyl}-2-methyloctahydropyrrolo[3,4-a]-indolizine-1,3-dione], the IC50 came out at 0.26 µM.
